Relative viability data for seven cell lines are collected here from the supplement of paper PMC10307832.

Assay in all cases: relative viability (nuclei count vs DMSO), 5 days (fraction); higher = more cells survive
Compound in the experiment “Metformin + Palbociclib”: CN(C)C(=N)NC(=N)N [Metformin] + CC(=O)c1c(C)c2cnc(Nc3ccc(N4CCNCC4)cn3)nc2n(C2CCCC2)c1=O [Palbociclib] (partner 0.5 µM)
The procedure, abridged: (§1)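 Lung cancer cell lines were seeded in 1536-well plates and dosed by pin tool the next day, with either a single drug or a fixed anchor-drug dose combined with five library-drug doses (not always all listed) spaced in √10 steps. Five days later, one step fixed the cells and stained their nuclei (final 0.05% Triton X-100, 1% formaldehyde, 1 ug/ml Hoechst), and nuclei were counted on 4× images. Relative viability is the nuclei count in treated wells divided by the count in vehicle wells, and each value is the median of duplicate plates.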

Compound in the experiment “Apatinib + Pemetrexed”: N#CC1(c2ccc(NC(=O)c3cccnc3NCc3ccncc3)cc2)CCCC1 [Apatinib] + Nc1nc2[nH]cc(CCc3ccc(C(=O)N[C@@H](CCC(=O)O)C(=O)O)cc3)c2c(=O)[nH]1 [Pemetrexed] (partner 0.2 µM)
An outline of the steps: as §1

Compound in the experiment “Apatinib + Pictilisib”: N#CC1(c2ccc(NC(=O)c3cccnc3NCc3ccncc3)cc2)CCCC1 [Apatinib] + CS(=O)(=O)N1CCN(Cc2cc3nc(-c4cccc5[nH]ncc45)nc(N4CCOCC4)c3s2)CC1 [Pictilisib] (partner 1 µM)
The procedure, abridged: as §1

Compound in the experiment “Metformin + Alpelisib”: CN(C)C(=N)NC(=N)N [Metformin] + Cc1nc(NC(=O)N2CCC[C@H]2C(N)=O)sc1-c1ccnc(C(C)(C)C(F)(F)F)c1 [Alpelisib] (partner 2 µM)
An outline of the steps:
as §1

In the case of HCC-78, the relative viability with Metformin + Palbociclib (first compound 10 µM) was 0.479; in the experiment with Metformin + Palbociclib (first compound 31.62 µM), 0.507; in the experiment with Metformin + Palbociclib (first compound 100 µM) it was 0.452; in the experiment with Metformin + Palbociclib (first compound 316.23 µM) it was 0.505; with Metformin + Palbociclib (first compound 1000 µM), 0.483; with Apatinib + Pemetrexed (first compound 0.08 µM) it was 0.871. Moreover, the relative viability with Apatinib + Pemetrexed (first compound 0.253 µM) came out at 0.934; in the experiment with Apatinib + Pemetrexed (first compound 0.8 µM), 0.854; with Apatinib + Pemetrexed (first compound 2.53 µM), 0.588; with Apatinib + Pemetrexed (first compound 8 µM) it was 0.909; with Apatinib + Pictilisib (first compound 0.08 µM), 0.299; in the experiment with Apatinib + Pictilisib (first compound 0.253 µM), 0.158. The relative viability in the experiment with Apatinib + Pictilisib (first compound 0.8 µM) was found to be 0.236; in the experiment with Apatinib + Pictilisib (first compound 2.53 µM), 0.221; in the experiment with Apatinib + Pictilisib (first compound 8 µM), 0.205; with Metformin + Alpelisib (first compound 10 µM), 0.408; with Metformin + Alpelisib (first compound 31.62 µM), 0.537; with Metformin + Alpelisib (first compound 100 µM), 0.57. In addition, the relative viability with Metformin + Alpelisib (first compound 316.23 µM) came out at 0.469; in the experiment with Metformin + Alpelisib (first compound 1000 µM) it was 0.598.

Regarding UMC-11, the relative viability with Metformin + Palbociclib (first compound 10 µM) came out at 0.336; in the experiment with Metformin + Palbociclib (first compound 31.62 µM) it was 0.349; in the experiment with Metformin + Palbociclib (first compound 100 µM) it was 0.333; with Metformin + Palbociclib (first compound 316.23 µM), 0.311; in the experiment with Metformin + Palbociclib (first compound 1000 µM), 0.341; in the experiment with Apatinib + Pemetrexed (first compound 0.08 µM) it was 0.783. Also, the relative viability was found to be 0.771 in the experiment with Apatinib + Pemetrexed (first compound 0.253 µM); 0.716 with Apatinib + Pemetrexed (first compound 0.8 µM); 0.663 in the experiment with Apatinib + Pemetrexed (first compound 2.53 µM); 0.433 with Apatinib + Pemetrexed (first compound 8 µM); 0.878 with Apatinib + Pictilisib (first compound 0.08 µM); 0.731 in the experiment with Apatinib + Pictilisib (first compound 0.253 µM). Besides, the relative viability with Apatinib + Pictilisib (first compound 0.8 µM) stood at 0.688; with Apatinib + Pictilisib (first compound 2.53 µM), 0.76; in the experiment with Apatinib + Pictilisib (first compound 8 µM) it was 0.686; with Metformin + Alpelisib (first compound 10 µM) it was 1.06; in the experiment with Metformin + Alpelisib (first compound 31.62 µM) it was 0.992; in the experiment with Metformin + Alpelisib (first compound 100 µM) it was 1.03. For the same cell line, the relative viability with Metformin + Alpelisib (first compound 316.23 µM) is 0.988; in the experiment with Metformin + Alpelisib (first compound 1000 µM), 0.971.

On to NCI-H3122, for which the relative viability with Metformin + Palbociclib (first compound 10 µM) came to 0.174; in the experiment with Metformin + Palbociclib (first compound 31.62 µM), 0.188; with Metformin + Palbociclib (first compound 100 µM) it was 0.228; in the experiment with Metformin + Palbociclib (first compound 316.23 µM) it was 0.191; with Metformin + Palbociclib (first compound 1000 µM), 0.184; in the experiment with Apatinib + Pemetrexed (first compound 0.08 µM), 0.212. Moreover, the relative viability in the experiment with Apatinib + Pemetrexed (first compound 0.253 µM) stood at 0.192; with Apatinib + Pemetrexed (first compound 0.8 µM), 0.199; in the experiment with Apatinib + Pemetrexed (first compound 2.53 µM), 0.202; with Apatinib + Pemetrexed (first compound 8 µM) it was 0.188; with Apatinib + Pictilisib (first compound 0.08 µM), 0.679; with Apatinib + Pictilisib (first compound 0.253 µM), 0.538. Further, the relative viability with Apatinib + Pictilisib (first compound 0.8 µM) is 0.684; with Apatinib + Pictilisib (first compound 2.53 µM), 0.731; with Apatinib + Pictilisib (first compound 8 µM), 0.701; with Metformin + Alpelisib (first compound 10 µM), 0.524; in the experiment with Metformin + Alpelisib (first compound 31.62 µM), 0.598; with Metformin + Alpelisib (first compound 100 µM), 0.649. The relative viability was found to be 0.625 in the experiment with Metformin + Alpelisib (first compound 316.23 µM) and 0.668 with Metformin + Alpelisib (first compound 1000 µM).

In the case of BEN, the relative viability in the experiment with Metformin + Palbociclib (first compound 10 µM) is 0.503; in the experiment with Metformin + Palbociclib (first compound 31.62 µM), 0.529; with Metformin + Palbociclib (first compound 100 µM), 0.523; with Metformin + Palbociclib (first compound 316.23 µM) it was 0.436; with Metformin + Palbociclib (first compound 1000 µM), 0.456; with Apatinib + Pemetrexed (first compound 0.08 µM) it was 0.64. The relative viability with Apatinib + Pemetrexed (first compound 0.253 µM) is 0.563; in the experiment with Apatinib + Pemetrexed (first compound 0.8 µM), 0.71; with Apatinib + Pemetrexed (first compound 2.53 µM) it was 0.696; with Apatinib + Pemetrexed (first compound 8 µM), 0.534; with Apatinib + Pictilisib (first compound 0.08 µM) it was 0.557; with Apatinib + Pictilisib (first compound 0.253 µM) it was 0.526. Also, the relative viability with Apatinib + Pictilisib (first compound 0.8 µM) came to 0.55; in the experiment with Apatinib + Pictilisib (first compound 2.53 µM), 0.464; with Apatinib + Pictilisib (first compound 8 µM) it was 0.468; with Metformin + Alpelisib (first compound 10 µM) it was 1.16; in the experiment with Metformin + Alpelisib (first compound 31.62 µM) it was 1.47; with Metformin + Alpelisib (first compound 100 µM), 1.43. Besides, the relative viability in the experiment with Metformin + Alpelisib (first compound 316.23 µM) stood at 1.03; in the experiment with Metformin + Alpelisib (first compound 1000 µM) it was 1.24.

On to LU99A, for which the relative viability is 0.387 with Metformin + Palbociclib (first compound 10 µM); 0.352 with Metformin + Palbociclib (first compound 31.62 µM); 0.347 with Metformin + Palbociclib (first compound 100 µM); 0.35 with Metformin + Palbociclib (first compound 316.23 µM); 0.31 with Metformin + Palbociclib (first compound 1000 µM); 0.189 with Apatinib + Pemetrexed (first compound 0.08 µM). For the same cell line, the relative viability in the experiment with Apatinib + Pemetrexed (first compound 0.253 µM) was 0.198; in the experiment with Apatinib + Pemetrexed (first compound 0.8 µM), 0.183; with Apatinib + Pemetrexed (first compound 2.53 µM) it was 0.174; with Apatinib + Pemetrexed (first compound 8 µM) it was 0.212; with Apatinib + Pictilisib (first compound 0.08 µM), 0.333; with Apatinib + Pictilisib (first compound 0.253 µM), 0.327. Moreover, the relative viability was 0.332 with Apatinib + Pictilisib (first compound 0.8 µM); 0.302 with Apatinib + Pictilisib (first compound 2.53 µM); 0.295 with Apatinib + Pictilisib (first compound 8 µM); 0.404 in the experiment with Metformin + Alpelisib (first compound 10 µM); 0.4 with Metformin + Alpelisib (first compound 31.62 µM); 0.379 with Metformin + Alpelisib (first compound 100 µM). Besides, the figures for the relative viability with Metformin + Alpelisib (first compound 316.23 µM) and with Metformin + Alpelisib (first compound 1000 µM) were 0.382 and 0.44, respectively.

On to EKVX, for which the relative viability with Metformin + Palbociclib (first compound 31.62 µM) stood at 0.312; with Metformin + Palbociclib (first compound 100 µM) it was 0.355; with Metformin + Palbociclib (first compound 316.23 µM), 0.384; in the experiment with Metformin + Palbociclib (first compound 1000 µM), 0.357; with Apatinib + Pemetrexed (first compound 0.08 µM), 0.434; with Apatinib + Pemetrexed (first compound 0.253 µM), 0.357. Further, the relative viability with Apatinib + Pemetrexed (first compound 0.8 µM) is 0.379; with Apatinib + Pemetrexed (first compound 2.53 µM), 0.342; with Apatinib + Pemetrexed (first compound 8 µM), 0.346; in the experiment with Apatinib + Pictilisib (first compound 0.08 µM) it was 0.454; in the experiment with Apatinib + Pictilisib (first compound 0.253 µM), 0.394; with Apatinib + Pictilisib (first compound 0.8 µM), 0.435. The relative viability was 0.341 with Apatinib + Pictilisib (first compound 2.53 µM); 0.401 in the experiment with Apatinib + Pictilisib (first compound 8 µM); 0.656 with Metformin + Alpelisib (first compound 10 µM); 0.934 in the experiment with Metformin + Alpelisib (first compound 31.62 µM); 0.88 in the experiment with Metformin + Alpelisib (first compound 100 µM); 0.812 with Metformin + Alpelisib (first compound 316.23 µM). Moreover, the relative viability with Metformin + Alpelisib (first compound 1000 µM) was found to be 0.835.

NCI-H1437: the relative viability was 0.384 in the experiment with Metformin + Palbociclib (first compound 10 µM); 0.459 with Metformin + Palbociclib (first compound 31.62 µM); 0.439 with Metformin + Palbociclib (first compound 100 µM); 0.389 with Metformin + Palbociclib (first compound 316.23 µM); 0.4 with Metformin + Palbociclib (first compound 1000 µM); 0.328 with Apatinib + Pemetrexed (first compound 0.08 µM). Moreover, the relative viability with Apatinib + Pemetrexed (first compound 0.253 µM) is 0.293; with Apatinib + Pemetrexed (first compound 0.8 µM), 0.306; with Apatinib + Pemetrexed (first compound 2.53 µM), 0.29; with Apatinib + Pemetrexed (first compound 8 µM) it was 0.256; with Apatinib + Pictilisib (first compound 0.08 µM), 0.468; in the experiment with Apatinib + Pictilisib (first compound 0.253 µM), 0.441. Moreover, the relative viability with Apatinib + Pictilisib (first compound 0.8 µM) was 0.377; with Apatinib + Pictilisib (first compound 2.53 µM), 0.392; with Apatinib + Pictilisib (first compound 8 µM), 0.284; in the experiment with Metformin + Alpelisib (first compound 10 µM), 1.11; with Metformin + Alpelisib (first compound 31.62 µM), 1.03; with Metformin + Alpelisib (first compound 100 µM) it was 1.07. Moreover, the relative viability with Metformin + Alpelisib (first compound 316.23 µM) was 1.05; in the experiment with Metformin + Alpelisib (first compound 1000 µM), 1.01.
